Assay results reported in patent publication US20080176885A1, “Novel synergistic opioid-cannabinoid codrug for pain management” (University of Kentucky, priority 2006, published 2008).
Values joined by “and” are separate entries in the source; they are usually repeats but may differ in a detail not shown here. Equal entries are not always repeated.

Tested on: thermally-induced nociception in rats
Test: Tail-flick test (thermally-induced nociception) in rats
Assay type: in vivo, rat (male Sprague-Dawley)
Settings: i.p., rat, cut off 10 seconds
Procedure: The purpose of the study was to determine the analgesic effect of tetrahydrocannabinol (Δ-9 THC) alone, Morphine Alone and Δ-9 THC in combination with Morphine on thermal-induced pain was determined. […] The dose response curve for the tail flick test and the analgesic effects of various doses of Morphine alone, Δ-9 THC alone as well as various doses of Δ-9 THC combined with various doses of morphine was determined by comparing pre-injection baseline values to post-injection values.
The tail-flick test was performed according to the following procedure:
Male Sprague-Dawley rats all with an approximate age of 85 to 90 days were each weighed prior to being subjected to any tests, on the day of the experiment. Each rat was only used for one day of experiments, and given only one dose, or dose combination. • 1. Prior to tail-flick test, rats are habituated for three days to handling and the tail flick procedure, without heat exposure. • 2. On the day of the experiment, warm up the tail-flick apparatus (IITC Model 33, Life Science, Woodland Hills, Calif.) for at least 30 minutes. • 3. Adjust the intensity of the lamp so that baseline tail-flick latency for rats is equal to approximately 2.0 seconds. […] Place rat in a mitten and blacken tail with ink approximately 2 inches in length at 1 inch from the tip of the tail. • 6. Place the tail flatly in the groove of the tail-flick apparatus. • 7. Push start to begin heat exposure. The lamp will turn off automatically when the tail flicks from the heat source. • 8. For each rat, a baseline score is determined prior to injection. TFL (tail flick latency) is measured twice in an approximate 15 minute intervals and an average of the two times determines the baseline. • 9. Once the baseline value is determined, TFL is measured, following the injection of drugs, at times 15, 30, 60 and 120 minutes.
All solutions were made on the day of the experiment. Not all of the solutions described below were used in every experiment. The drug combinations vary for each experiment. Each particular combination for an experiment is reported in the corresponding table below.
Each animal is given an injection of morphine that is 1 ml/kg body weight, and an injection of THC or control that is varies by dose and the injection volume is calculated as set forth above.

[1] = Example 10, dose Z: 2 mg/kg morphine 30 minutes after vehicle

## CCCCCc1cc(O)c2c(c1)OC(C)(C)[C@@H]1CCC(C)=C[C@@H]21 [Δ-9 THC, delta-9-tetrahydrocannabinol]
Example 6, dose X: saline and 2 mg/kg Δ-9 THC, 15 min
  Tail Flick Latency (TFL, seconds) 15 min: 2.33 s and 1.77 s and 2.10 s
Example 8, dose X: saline and 2 mg/kg Δ-9 THC, 15 min
  Tail Flick Latency (TFL, seconds) 15 min: 2.57 s and 1.88 s and 3.65 s
Dose C: saline and 8 mg/kg Δ-9 THC
  Tail Flick Latency (TFL, seconds) 180 min: 10.0 s
Dose C: saline and 8 mg/kg Δ-9 THC, 240 min
  Tail Flick Latency (TFL, seconds) 240 min: 9.21 s and 8.98 s and 7.28 s
Dose E: saline and 1 mg/kg Δ-9 THC, 15 min
  Tail Flick Latency (TFL, seconds) 15 min: 2.12 s and 2.03 s
Dose E: saline and 1 mg/kg Δ-9 THC
  Tail Flick Latency (TFL, seconds) 30 min: 2.56 s and 2.15 s
Dose E: saline and 1 mg/kg Δ-9 THC, 60 min
  Tail Flick Latency (TFL, seconds) 60 min: 3.98 s and 5.07 s
Dose E: saline and 1 mg/kg Δ-9 THC, 120 min
  Tail Flick Latency (TFL, seconds) 120 min: 4.20 s and 3.09 s
Dose G: saline and 4 mg/kg Δ-9 THC
  Tail Flick Latency (TFL, seconds) 30 min: 5.07 s and 5.89 s and 5.10 s
Dose G: saline and 4 mg/kg Δ-9 THC, 60 min
  Tail Flick Latency (TFL, seconds) 60 min: 6.24 s and 8.76 s and 6.48 s

## CN1CC[C@]23c4c5ccc(O)c4O[C@H]2[C@@H](O)C=C[C@H]3[C@H]1C5 [Morphine]
Example 7, dose Z: vehicle and 2 mg/kg morphine, 15 min
  Tail Flick Latency (TFL, seconds) 15 min: 3.08 s and 3.12 s and 2.28 s
Example 7, dose Z: vehicle and 2 mg/kg morphine
  Tail Flick Latency (TFL, seconds) 30 min: 2.96 s and 2.83 s and 4.73 s
Example 7, dose Z: vehicle and 2 mg/kg morphine, 60 min
  Tail Flick Latency (TFL, seconds) 60 min: 2.22 s and 3.69 s and 3.85 s
Example 9, dose Z: 2 mg/kg Morphine and vehicle
  Tail Flick Latency (TFL, seconds) 30 min: 4.22 s and 4.99 s and 3.00 s
Example 9, dose Z: 2 mg/kg Morphine and vehicle, 60 min
  Tail Flick Latency (TFL, seconds) 60 min: 2.91 s and 5.25 s and 3.97 s
Example 9, dose Z: 2 mg/kg Morphine and vehicle, 120 min
  Tail Flick Latency (TFL, seconds) 120 min: 2.68 s and 4.83 s and 2.67 s
Example 10, dose Z: 2 mg/kg morphine 30 minutes after vehicle, 15 min
  Tail Flick Latency (TFL, seconds) 15 min: 2.41 s and 2.99 s and 3.89 s and 2.36 s and 2.97 s and 3.02 s
[1]
  Tail Flick Latency (TFL, seconds) 30 min: 2.90 s and 3.58 s and 4.86 s and 4.07 s and 4.39 s and 3.90 s
  Tail Flick Latency (TFL, seconds) 180 min: 2.15 s and 2.64 s and 2.59 s and 2.18 s and 2.56 s and 2.67 s
Example 10, dose Z: 2 mg/kg morphine 30 minutes after vehicle, 60 min
  Tail Flick Latency (TFL, seconds) 60 min: 3.26 s and 3.14 s and 3.96 s and 3.86 s and 3.99 s and 4.01 s
Example 10, dose Z: 2 mg/kg morphine 30 minutes after vehicle, 120 min
  Tail Flick Latency (TFL, seconds) 120 min: 2.68 s and 2.94 s and 3.18 s and 3.06 s and 3.23 s
Dose B: 3 mg/kg morphine and vehicle, 15 min post-injection
  Tail Flick Latency (TFL, seconds) 15 min: 2.38 s and 2.19 s and 2.74 s
Dose B: 3 mg/kg morphine and vehicle, 60 min post-injection
  Tail Flick Latency (TFL, seconds) 60 min: 5.36 s and 4.63 s and 4.80 s
Dose B: 3 mg/kg morphine and vehicle, 120 min post-injection
  Tail Flick Latency (TFL, seconds) 120 min: 4.02 s and 4.55 s and 3.99 s
